# Assay results: ChEMBL document CHEMBL1201862, “PubChem BioAssay data set” (2004)
# The source made the active and inactive calls.
# How the values were obtained:
# [1] = target: Serine/threonine-protein phosphatase PP1-alpha catalytic subunit (Homo sapiens, UniProt P62136); assay: inhibition of protein phosphatase 1 activity – biochemical, fluorescence, dose response (AID 2394)
# [2] = target: T1, Mannose-6-phosphate isomerase (Homo sapiens, UniProt P34949); assay: MPI inhibition at elevated mannose 6-phosphate – biochemical, fluorescence intensity, high mannose 6-phosphate, primary screen (AID 1220)
# T1 sequence (P34949 whole entry): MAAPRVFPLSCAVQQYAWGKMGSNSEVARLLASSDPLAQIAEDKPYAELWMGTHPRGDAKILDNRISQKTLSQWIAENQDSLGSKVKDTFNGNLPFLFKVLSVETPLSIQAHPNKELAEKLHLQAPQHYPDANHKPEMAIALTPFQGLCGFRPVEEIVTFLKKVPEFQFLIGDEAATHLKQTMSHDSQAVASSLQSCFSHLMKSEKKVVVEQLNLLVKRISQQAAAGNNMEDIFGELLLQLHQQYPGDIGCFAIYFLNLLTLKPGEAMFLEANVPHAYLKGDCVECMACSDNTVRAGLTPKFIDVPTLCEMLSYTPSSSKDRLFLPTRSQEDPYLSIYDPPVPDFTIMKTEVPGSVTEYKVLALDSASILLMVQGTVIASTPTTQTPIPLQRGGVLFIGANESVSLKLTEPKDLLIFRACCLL
# [3] = target: T2, Apoptotic protease-activating factor 1 (Homo sapiens, UniProt O14727); assay type: functional
# T2 sequence (O14727 whole entry): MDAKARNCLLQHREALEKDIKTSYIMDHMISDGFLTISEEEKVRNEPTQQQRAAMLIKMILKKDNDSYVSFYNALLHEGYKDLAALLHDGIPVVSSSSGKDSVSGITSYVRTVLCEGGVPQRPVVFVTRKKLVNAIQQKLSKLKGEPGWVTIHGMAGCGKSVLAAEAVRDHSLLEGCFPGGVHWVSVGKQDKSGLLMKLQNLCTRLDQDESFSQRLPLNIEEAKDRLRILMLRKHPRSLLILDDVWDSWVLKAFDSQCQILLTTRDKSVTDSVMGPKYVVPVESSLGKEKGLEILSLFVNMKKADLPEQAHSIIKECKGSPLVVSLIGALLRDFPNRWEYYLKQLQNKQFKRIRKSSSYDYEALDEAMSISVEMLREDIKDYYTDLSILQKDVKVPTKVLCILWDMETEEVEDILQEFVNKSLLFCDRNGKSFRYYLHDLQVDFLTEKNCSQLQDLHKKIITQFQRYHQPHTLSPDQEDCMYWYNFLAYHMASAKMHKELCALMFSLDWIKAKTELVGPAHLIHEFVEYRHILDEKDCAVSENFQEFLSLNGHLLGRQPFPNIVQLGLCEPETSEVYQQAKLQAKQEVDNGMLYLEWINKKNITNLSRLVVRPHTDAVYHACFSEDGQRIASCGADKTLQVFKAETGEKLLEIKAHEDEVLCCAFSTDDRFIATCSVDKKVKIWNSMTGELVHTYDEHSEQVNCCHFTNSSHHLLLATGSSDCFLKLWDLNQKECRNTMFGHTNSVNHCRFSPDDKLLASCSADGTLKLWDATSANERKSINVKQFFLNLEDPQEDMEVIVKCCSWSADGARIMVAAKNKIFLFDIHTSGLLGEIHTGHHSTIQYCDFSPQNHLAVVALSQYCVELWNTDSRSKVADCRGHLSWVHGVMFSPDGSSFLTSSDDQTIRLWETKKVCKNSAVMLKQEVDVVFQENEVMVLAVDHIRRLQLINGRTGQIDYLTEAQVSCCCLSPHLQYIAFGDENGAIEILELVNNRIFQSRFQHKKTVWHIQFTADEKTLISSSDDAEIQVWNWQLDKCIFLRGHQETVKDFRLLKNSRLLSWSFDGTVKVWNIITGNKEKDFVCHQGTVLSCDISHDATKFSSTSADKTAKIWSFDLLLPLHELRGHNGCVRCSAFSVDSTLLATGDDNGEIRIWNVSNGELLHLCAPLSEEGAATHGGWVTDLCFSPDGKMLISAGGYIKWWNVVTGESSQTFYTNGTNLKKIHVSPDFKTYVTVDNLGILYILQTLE
# [4] = Luminescence-based cell-based high throughput dose response assay to identify activators of the DAF-12 from the parasite S. stercoralis (ssDAF-12).; assay type: functional
# [5] = target: T3, Oxysterols receptor LXR-beta (Homo sapiens, UniProt P55055); assay type: functional, cell-based;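 note: agonist activity at LXR measured by a cell-based luminescence readout across a dose range, run as a counterscreen for daf-12 agonists; HEK293 cells with Gal4-LXR fusion and GAL4-driven luciferase reporter; potency for activation of Gal4-LXR reporter so compounds are agonists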
# T3 sequence (P55055 whole entry): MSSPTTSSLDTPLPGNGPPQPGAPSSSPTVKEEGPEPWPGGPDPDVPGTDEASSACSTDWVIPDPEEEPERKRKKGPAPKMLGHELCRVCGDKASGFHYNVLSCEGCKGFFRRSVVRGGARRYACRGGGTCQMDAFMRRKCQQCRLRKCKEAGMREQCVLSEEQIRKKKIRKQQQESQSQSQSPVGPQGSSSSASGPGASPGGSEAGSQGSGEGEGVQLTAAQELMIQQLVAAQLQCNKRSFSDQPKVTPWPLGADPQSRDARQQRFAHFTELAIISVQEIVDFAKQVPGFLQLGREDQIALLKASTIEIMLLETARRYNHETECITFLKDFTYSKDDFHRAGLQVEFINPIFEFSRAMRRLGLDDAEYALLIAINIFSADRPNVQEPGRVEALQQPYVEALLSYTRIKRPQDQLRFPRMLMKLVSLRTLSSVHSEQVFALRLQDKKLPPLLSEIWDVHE
# Sequence of Serine/threonine-protein phosphatase PP1-alpha catalytic subunit (P62136 whole entry): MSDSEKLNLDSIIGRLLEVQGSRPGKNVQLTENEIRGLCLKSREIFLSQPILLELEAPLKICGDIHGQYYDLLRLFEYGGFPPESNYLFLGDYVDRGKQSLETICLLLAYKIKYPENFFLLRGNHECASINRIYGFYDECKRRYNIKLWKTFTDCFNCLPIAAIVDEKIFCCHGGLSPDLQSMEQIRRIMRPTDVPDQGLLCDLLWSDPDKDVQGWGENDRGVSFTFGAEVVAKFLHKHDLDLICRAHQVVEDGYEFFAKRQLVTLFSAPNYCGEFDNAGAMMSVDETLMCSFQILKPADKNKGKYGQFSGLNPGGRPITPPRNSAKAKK
Structure (SMILES),IC50 [1],IC50 [2],IC50 [3],IC50 [4],EC50 [5]
COc1ccc(/C=N/Nc2cc(N(C)C)nc(N(C)C)n2)cc1,> 67 µM (not active),> 50 µM (not active),2.36 µM (active),–,–
C/C(=N\c1cccc(C)c1)c1sc2ccccc2c1O,–,–,–,> 67.6 µM (inactive),> 67.6 µM (inactive)
